Assays:
CYP2C19 = test: Metabolic phenotype by rhCYP isozymes, CYP2C19; type: in vitro ADME, human; settings: 7–16 1 µM
Description: (§1) Based on the result of metabolite identification, two metabolites were selected as targets for metabolic phenotyping analysis. Seven CYP isozymes (CYP1A2, CYP2B6, CYP2C8, CYP2C9, CYP2C19, CYP2D6, and CYP3A4) were investigated using the rhCYP isozymes method. In brief, 7–16 (1 µΜ) was incubated with each rhCYP isozyme ([…]) in 100 mM sodium phosphate buffer (pH 7.4) containing 3 mM magnesium chloride. After 10 min of preincubation at 37 °C, the reactions were initiated by adding NADPH (1 mM) and then incubated at 37 °C in a shaking water bath for 0, 5, 15, and 30 min. The specific substrates of each rhCYP isozyme were incubated as the above method to confirm the activity of the incubation system. The samples were prepared in triplicates. The reactions were terminated by adding three times the volume of ice-cold acetonitrile (600 µL) and stored at −20 °C until analysis. After pre-treatment, the samples were determined by the LC–MS/MS (Shimadzu Exion-Triple Quad 4500) method. The relative contribution rate of each isozyme to the metabolism of 7–16 was evaluated in HLMs using the following formula: Contributionx% = Vx × Abundancex (pmol/mg protein)/Σ(Vi × Abundancei). Vx (µL/min/pmol) is the production rate of metabolites for each rhCYP isozyme.

CYP2C8 = test: Metabolic phenotype by rhCYP isozymes, CYP2C8; type: in vitro ADME, human; settings: 7–16 1 µM
Description: as §1

[1] = Excretion and metabolite identification in urine and feces of intact rats; type: in vivo, Sprague-Dawley rats; settings: intact rats, 0–168 h, oral 3 mg/100 µCi/kg
Description: In the urine and feces excretion experiment, six rats (3 females and 3 males) were administered a single oral dose of [^14C]7–16 at 3 mg/100 µCi/kg. Urine, feces and cage washing/cleaning solution samples were collected from 0 to 168 h following drug administration at the following time intervals: 0–8, 8–24 h (0–24 h for feces), 24–48, 48–72, 72–96, 96–120, 120–144, and 144–168 h. In the biliary excretion experiment, 8 rats using a bile duct cannula (BDC) (4 females and 4 males) were administered a single oral dose of [^14C]7–16 at 3 mg/100 µCi/kg. Bile, urine, feces, and cage washing solution were collected from before and 0–72 h after oral administration at the following time intervals: 0–4, 4–8 (urine 0–8), 8–24 (feces 0–24), 24–48, and 48–72 h. All samples were collected and refrigerated at −20 °C until determination of the radioactive concentrations by liquid scintillation counter (Perkin Elmer Corporation, Waltham, MA, USA). Urine, feces, and bile samples at each time period were mixed by equal percentages of either volume or weight. After the mixed samples were treated, the radio-profiles and metabolite identification in the bile, urine, and feces samples were carried out by LC-RAM and UPLC-Q Exactive HRMS, and the TRA% of each metabolite in plasma and the percentage of dose (dose%) of each compound in urine, feces, and bile samples were calculated.

[2] = Metabolite identification in human liver microsomes; type: in vitro ADME; settings: 7–16 10 µM, liver microsomes 1 mg/mL, NADPH, 37 °C, 60 min
Description: In accordance with our previous methods, 7–16 (10 µM) was incubated with mouse, rat, dog, monkey, and human liver microsome proteins (1 mg/mL) in 100 mM sodium phosphate buffer (pH 7.4) containing 10 mM magnesium chloride and 2 mM NADPH at 37 °C for 60 min. All samples were prepared in duplicates. The reactions were terminated by adding three times the volume of ice-cold acetonitrile (600 µL) and stored at −20 °C until analysis. Control samples without NADPH and 0-time point samples were included. As a positive control, testosterone (10 µM), which was metabolized to produce the hydroxylation metabolite, was used as a substrate to confirm the activity of the incubation system.
After pre-treatments, the samples were analyzed by an Acquity UPLC system coupled with a diode array detector (Waters Corporation, Milford, MA, USA) and Q Exactive HRMS (Thermo Electron Corporation, Waltham, MA, USA) (UPLC–UV-Q Exactive HRMS). Samples were separated on an Agilent XDB C18 column (150 × 2.1 mm i.d. 3.5 μm, Agilent Corporation, Santa Clara, CA, USA) at 40 °C by gradient elution with water and acetonitrile containing 0.1% formic acid. The flow rate was 0.40 mL/min. The ultraviolet (UV) detection wavelength was 286 nm. Q Exactive HRMS were operated at positive ion mode (3.5 kV) using a heating electrospray ionization source. Mass calibration was required to be performed before conducting experiments so as to achieve the best mass accuracy and mass calibration should be performed every five days. The metabolites were detected by full MS/dd-MS^2 analysis from m/z 100 to m/z 1000. The resolution of the first-class scan and second-class scan was 70,000 and 17,500, respectively. Thermo Compound Discover software was used to identify expected and unknown metabolites, and we finally proposed the 7–16 metabolic pathways based on the deduced metabolites and relevant drug biotransformation knowledge.

CYP2D6 = test: Metabolic phenotype by rhCYP isozymes, CYP2D6; type: in vitro ADME, human; settings: 7–16 1 µM
Description: as §1

CYP2C9 = test: Metabolic phenotype by rhCYP isozymes, CYP2C9; type: in vitro ADME, human; settings: 7–16 1 µM
Description: as §1

5-HT2A receptor = target: 5-HT2A receptor; design: method as in PMID 35279606; settings: cited from earlier work
OAT3 = target: T1, OAT3 (Homo sapiens, UniProt Q8TCC7)
T1 sequence (Q8TCC7 1-542): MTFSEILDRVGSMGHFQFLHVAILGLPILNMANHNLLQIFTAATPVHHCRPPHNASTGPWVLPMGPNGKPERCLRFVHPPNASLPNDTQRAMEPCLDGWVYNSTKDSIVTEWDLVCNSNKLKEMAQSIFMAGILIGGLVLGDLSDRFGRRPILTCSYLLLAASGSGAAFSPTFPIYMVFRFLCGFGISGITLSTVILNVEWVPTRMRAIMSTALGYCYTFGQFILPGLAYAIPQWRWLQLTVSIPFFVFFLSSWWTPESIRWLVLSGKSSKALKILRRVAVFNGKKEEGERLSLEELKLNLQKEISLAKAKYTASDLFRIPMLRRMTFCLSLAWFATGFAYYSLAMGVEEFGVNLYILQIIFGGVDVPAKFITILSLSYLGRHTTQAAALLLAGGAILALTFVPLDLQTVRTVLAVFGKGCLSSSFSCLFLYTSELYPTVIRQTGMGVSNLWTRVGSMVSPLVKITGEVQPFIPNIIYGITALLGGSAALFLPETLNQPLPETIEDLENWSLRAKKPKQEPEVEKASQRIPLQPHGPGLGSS

## CN1CCC(N(Cc2ccc(F)cn2)C(=O)NCc2ccc(OCC(F)(F)F)cc2)CC1 [7–16, 3-(4-(2,2,2-trifluoroethoxy)benzyl)-1-((5-fluoropyridin-2-yl)methyl)-1-(1-methylpiperidin-4-yl) urea]
CYP2C19
  relative contribution of CYP2C19 to metabolism: little or no contribution
CYP2C8
  relative contribution of CYP2C8 to metabolism: little or no contribution
[1]
  recovery of radioactivity in cage rinse/wash, percent of dose: 4.06%
  recovery of radioactivity in feces, percent of dose: 55.0%
  recovery of radioactivity in urine, percent of dose: 39.9%
[1]; mean of both sexes
  total recovery of radioactivity, percent of administered dose: 98.9%
[2]
  Relative Abundance, UV Area% Human: 95.2%
CYP2D6
  relative contribution of CYP2D6 to metabolism: little or no contribution
CYP2C9
  relative contribution of CYP2C9 to metabolism: little or no contribution
5-HT2A receptor; previous study, read-out: 5-HT2A receptor antagonist activity IC50
  IC50: 0.54 nM
5-HT2A receptor; versus pimavanserin
  fold higher 5-HT2A receptor antagonist activity than pimavanserin: 50 fold
OAT3
  IC50: > 100000 nM

— paper PMC11124362, “Metabolism, Disposition, Excretion, and Potential Transporter Inhibition of 7–16, an Improving 5-HT2A Receptor Antagonist and Inverse Agonist for Parkinson’s Disease” (Molecules, 2024)
